The data set is described as follows: Mouse PK study (oral pharmacokinetics). It counts as in vivo. To be noted: male, 10 mg/kg, CD-1 mice, plasma, read-out: AUC indicator (oral AUC). On the procedure: Oral pharmacokinetics of each of the compounds shown in Table 1 (“test compound”) were determined as follows.
Test compound was formulated in PEG400:ethanol:saline (40:20:40, by volume) for IV administration and in 30% Captisol in water for both IV and PO administration in CD-1 mice. Labetalol was used as an internal standard for the LC-MS/MS assay of the CD-1 mouse samples.
Adult male CD-1 mice were obtained from Charles River Laboratories in Portage, Mich. At the time of study-start, each CD-1 mouse weighed approximately 30 grams and was between the ages of 7-9 weeks. All CD-1 mice were acclimated to the Array BioPharma Inc. vivarium for at least 5 days prior to administration of an IV dose by way of a tail vein injection (5 mL/kg) or a PO dose by oral gavage (10 mL/kg).
Animals were euthanized by CO2 inhalation and blood samples were collected by cardiac puncture into syringes containing a 1.5% EDTA solution in water (w/v; pH was titrated to 7.4 with 5 N NaOH; the final ratio of blood to EDTA was approximately […]) as the anticoagulant. Plasma was harvested from blood samples by centrifugation and stored at −20° C. until analysis. The following time points were collected for the IV arm: 0.017, 0.083, 0.25, 0.5, 1, 2, 4, 8, 12 and 24 hours post dose. The following time points were collected for the PO arm: 0.25, 0.50, 1, 4, 8, and 24 hours post dose.
Protein was precipitated from 20 μL of mouse plasma with the addition of 200 μL of 0.1% acetic acid in acetonitrile. A single 12-point calibration curve was prepared by first serially diluting (3-fold) a 40-μg/mL stock solution of the test compound in acetonitrile. Naive CD-1 mouse plasma (20 μL) was then added to each standard solution (200 μL). A stock solution of the internal standard (Labetalol; 180 μL of 0.1 μg/mL in acetonitrile) was subsequently added to each standard and sample solution, for a total volume of 400 μL. Samples were vortex-mixed for 5 minutes and spun in an Allegra X-12R centrifuge (Beckman Coulter, Fullerton, Calif.) for 15 minutes at approximately 1,500×g at 4° C. A 100-μL aliquot of each supernatant was transferred via a 550 μL Personal Pipettor (Apricot Designs, Monrovia, Calif.) to 96-well plates and diluted 1:1 with HPLC grade water. The resulting plates were sealed with plate mats and analyzed by LC-MS/MS.
The LC-MS/MS system was comprised of an HTC-PAL autosampler (Leap Technologies, Inc., Carrboro, N.C.), an HP1100 HPLC (Agilent Technologies Inc., Santa Clara, Calif.), and an API4000 triple quadrupole mass spectrometer (Applied Biosystems, Foster City, Calif.). Chromatographic retention of the analyte and internal standard was achieved using a Betasil Phenyl-Hexyl column (2.1×30 mm, 3 μm particle size, Thermo Scientific) in conjunction with gradient conditions using mobile phases A (aqueous 0.1% formic acid and 1% IPA) and B (0.1% formic acid in acetonitrile). The total run time, including re-equilibration time, for a single injection was 3.5 minutes. Mass spectrometric detection of the analytes was accomplished using ESI+ ionization mode. Ion current was optimized during infusion of a stock solution of the test compound. Analyte responses were measured by multiple reaction monitoring (MRM) of transitions unique to each compound.
Data were acquired and processed using the Applied Biosystems Analyst software (version 1.4.2). Calibration was achieved by plotting the peak area ratios of analyte to internal standard as a function of the normal concentrations of standard samples. A calibration model was generated by quadratic regression of the calibration curve with a weighting factor of 1/x. The model was used to calculate the concentrations in all samples. The lower limit of quantitation (LLOQ) for this analysis was in the single-digit μg/mL range (either 2.03 or 6.10 μg/mL).
Pharmacokinetic parameters were calculated by established non-compartmental methods using an in-house Excel® (Microsoft Corporation, Redmond, Wash.) macro, PK Toolbox version 2.0. […]

For the molecule `COCCSc1cnc(Nc2nc([C@H](O)CO)ns2)c(Oc2c(C)nn(C)c2C)c1.Cl` [Example 148, (S)-1-(5-(5-(2-methoxyethylthio)-3-(1,3,5-trimethyl-1H-pyrazol-4-yloxy)pyridin-2-ylamino)-1,2,4-thiadiazol-3-yl)ethane-1,2-diol hydrochloride], the AUC fell in the range of 1000 to 5000 ng·h/mL.

Turning to `Cc1ncccc1Oc1cc(SCC2CC2)cnc1Nc1nc([C@H](O)CO)ns1.Cl` [Example 136, (S)-1-(5-(5-(cyclopropylmethylthio)-3-(2-methylpyridin-3-yloxy)pyridin-2-ylamino)-1,2,4-thiadizol-3-yl)ethane-1,2-diol hydrochloride], the AUC was in the range of 10000 to 20000 ng·h/mL.

Turning to `Cc1ncccc1Oc1cc(Sc2ccccn2)cnc1Nc1nc([C@@](C)(O)CO)ns1.Cl` [Example 151, (R)-2-(5-(3-(2-methylpyridin-3-yloxy)-5-(pyridin-2-ylthio)pyridin-2-ylamino)-1,2,4-thiadiazol-3-yl)propane-1,2-diol hydrochloride], the AUC is greater than 20000 ng·h/mL.

As to `Cc1nn(C)c(C)c1Oc1cc(Sc2ccccn2)cnc1Nc1nc([C@H](O)CO)ns1.Cl` [Example 147, (S)-1-(5-(5-(pyridin-2-ylthio)-3-(1,3,5-trimethyl-1H-pyrazol-4-yloxy)pyridin-2-ylamino)-1,2,4-thiadiazol-3-yl)ethane-1,2-diol hydrochloride], the AUC fell in the range of 1000 to 5000 ng·h/mL.

For `Cc1ccc(Oc2cc(Sc3ccccn3)cnc2Nc2nc([C@H](O)CO)ns2)c(C)n1.Cl` [Example 135, (S)-1-(5-(3-(2,6-dimethylpyridin-3-yloxy)-5-(pyridin-2-ylthio)pyridin-2-ylamino)-1,2,4-thiadizol-3-yl)ethane-1,2-diol hydrochloride], the AUC lay in the range of 5000 to 10000 ng·h/mL.

Regarding `Cc1ccnc(C)c1Oc1cc(Sc2ccccn2)cnc1Nc1nc([C@H](O)CO)ns1.Cl` [Example 142, (S)-1-(5-(3-(2,4-dimethylpyridin-3-yloxy)-5-(pyridin-2-ylthio)pyridin-2-ylamino)-1,2,4-thiadiazol-3-yl)ethane-1,2-diol hydrochloride], the AUC is 1000 to 5000 ng·h/mL.

As to `COCCSc1cnc(Nc2nc([C@H](O)CO)ns2)c(Oc2cccnc2C)c1.Cl` [Example 144, (S)-1-(5-(5-(2-methoxyethylthio)-3-(2-methylpyridin-3-yloxy)pyridin-2-ylamino)-1,2,4-thiadiazol-3-yl)ethane-1,2-diol hydrochloride], the AUC was 5000 to 10000 ng·h/mL.

For `Cc1cccnc1Sc1cnc(Nc2nc([C@H](O)CO)ns2)c(Oc2cccnc2C)c1.Cl` [Example 141, (S)-1-(5-(5-(3-methylpyridin-2-ylthio)-3-(2-methylpyridin-3-yloxy)pyridin-2-ylamino)-1,2,4-thiadiazol-3-yl)ethane-1,2-diol hydrochloride], the AUC fell in the range of 1000 to 5000 ng·h/mL.

`Cc1nn(C)c(C)c1Oc1cc(Sc2ccccn2)cnc1Nc1nc([C@H](O)C(C)(C)O)ns1.Cl` [Example 146, (S)-2-methyl-1-(5-(5-(pyridin-2-ylthio)-3-(1,3,5-trimethyl-1H-pyrazol-4-yloxy)pyridin-2-ylamino)-1,2,4-thiadiazol-3-yl)propane-1,2-diol hydrochloride]: the AUC lay in the range of 10000 to 20000 ng·h/mL.

Regarding `COCCCSc1cnc(Nc2nc([C@H](O)CO)ns2)c(Oc2cccnc2C)c1.Cl` [Example 138, (S)-1-(5-(5-(3-methoxypropylthio)-3-(2-methylpyridin-3-yloxy)-pyridin-2-ylamino)-1,2,4-thiadizol-3-yl)ethane-1,2-diol hydrochloride], the AUC is 1000 to 5000 ng·h/mL.

Take `CCc1ncccc1Oc1cc(Sc2ccccn2)cnc1Nc1nc([C@H](O)[C@@H](O)COC)ns1.Cl` [Example 145, (1S,2S)-1-(5-(3-(2-ethylpyridin-3-yloxy)-5-(pyridin-2-ylthio)pyridin-2-ylamino)-1,2,4-thiadiazol-3-yl)-3-methoxypropane-1,2-diol hydrochloride]: the AUC was 5000 to 10000 ng·h/mL.

Take `CCn1nccc1Oc1cc(Sc2ccccn2)cnc1Nc1nc([C@H](O)C(C)(C)O)ns1.Cl` [Example 140, (S)-1-(5-(3-(1-ethyl-1H-pyrazol-5-yloxy)-5-(pyridin-2-ylthio)pyridin-2-ylamino)-1,2,4-thiadiazol-3-yl)-2-methylpropane-1,2-diol]: the AUC is greater than 20000 ng·h/mL.

As for `Cc1ncccc1Oc1cc(Sc2ccccn2)cnc1Nc1nc([C@H](O)C(C)(C)O)ns1.Cl` [Example 143, (S)-2-methyl-1-(5-(3-(2-methylpyridin-3-yloxy)-5-(pyridin-2-ylthio)pyridin-2-ylamino)-1,2,4-thiadiazol-3-yl)propane-1,2-diol hydrochloride], the AUC was greater than 20000 ng·h/mL.

On to `CCc1ncccc1Oc1cc(Sc2ccccn2)cnc1Nc1nc([C@H](O)CO)ns1` [Example 137], for which the AUC is 5000 to 10000 ng·h/mL.

`Cc1ncccc1Oc1cc(Sc2ccccn2)cnc1Nc1nc([C@](C)(O)CO)ns1.Cl` [Example 150, (S)-2-(5-(3-(2-methylpyridin-3-yloxy)-5-(pyridin-2-ylthio)pyridin-2-ylamino)-1,2,4-thiadiazol-3-yl)propane-1,2-diol hydrochloride]: the AUC is 10000 to 20000 ng·h/mL.

For the molecule `CCn1nccc1Oc1cc(Sc2ccccn2)cnc1Nc1nc([C@H](O)CO)ns1.Cl` [Example 139, (S)-1-(5-(3-(1-Ethyl-1H-pyrazol-5-yloxy)-5-(pyridin-2-ylthio)pyridin-2-ylamino)-1,2,4-thiadiazol-3-yl)ethane-1,2-diol hydrochloride], the AUC is greater than 20000 ng·h/mL.

Consider `Cc1ncccc1Oc1cc(Sc2ccccn2)cnc1Nc1nc([C@H](O)CO)ns1.Cl` [Example 134, (S)-1-(5-(3-(2-methylpyridin-3-yloxy)-5-(pyridin-2-ylthio)pyridin-2-ylamino)-1,2,4-thiadiazol-3-yl)ethane-1,2-diol hydrochloride], for which the AUC is 10000 to 20000 ng·h/mL.

On to `Cc1ncccc1Oc1cc(Sc2ccccn2)cnc1Nc1nc([C@@H](O)CO)ns1` [Example 149, (R)-1-(5-(3-(2-methylpyridin-3-yloxy)-5-(pyridin-2-ylthio)pyridin-2-ylamino)-1,2,4-thiadiazol-3-yl)ethane-1,2-diol], for which the exposure (AUC) lay within 5000 to 10000 ng·h/mL.

For the origin of these results see US8853409B2, “Pyridin-2yl-amino-1, 2, 4-thiadiazole derivatives as glucokinase activators for the treatment of diabetes mellitus” (Array BioPharma Inc., priority 2007, dated 2014).
